In patent US5693668A, “Acetylcholinesterase inhibitors” (priority 1989, dated 1997):
Read-outs that look alike come from different tables or passages of the source.

Test: Pharmacokinetics and bioavailability of [14C]-MDL 73,745 in Beagle dogs
Type: in vivo, Beagle dog
Details: for half-life / clearance / Vd / Cmax / Tmax / bioavailability: dog, in vivo; for Vd: read-out: aVd; for bioavailability: normalized to 2 mg/kg iv
Protocol: Three male Beagle dogs were studied. Animals were fasted 12 h before drug administration but had free access to drinking water. The following single doses of [^14 C]-MDL 73,745 were administered: intravenous (iv): 1 and 2 mg/kg; oral (po): 10 mg/kg; subcutaneous (sc): 10 mg/kg. There was a two week wash-out period between each administration. Drug was administered as a suspension in 0.5% methyl cellulose. […]

[1] = iv, 2 mg/kg, iv 2 mg/kg, dog No. 17
[2] = iv, 2 mg/kg, iv 2 mg/kg, dog No. 18
[3] = iv, 2 mg/kg, iv 2 mg/kg, dog No. 19
[4] = iv, 2 mg/kg, iv 2 mg/kg, mean ± SD of 3 dogs
[5] = po, 10 mg/kg, oral 10 mg/kg, dog No. 17
[6] = po, 10 mg/kg, oral 10 mg/kg, dog No. 18
[7] = po, 10 mg/kg, oral 10 mg/kg, dog No. 19
[8] = po, 10 mg/kg, oral 10 mg/kg, mean ± SD of 3 dogs
[9] = sc, 10 mg/kg, subcutaneous 10 mg/kg, dog No. 17
[10] = sc, 10 mg/kg, subcutaneous 10 mg/kg, dog No. 18
[11] = sc, 10 mg/kg, subcutaneous 10 mg/kg, dog No. 19
[12] = sc, 10 mg/kg, subcutaneous 10 mg/kg, mean ± SD of 3 dogs

C[Si](C)(C)c1cccc(C(=O)C(F)(F)F)c1 [MDL 73,745, 2,2,2-Trifluoro-1-(3-trimethylsilylphenyl) ethanone]
half-life [1]: 18.6 h | clearance (iv, 2 mg/kg, iv 2 mg/kg, dog No. 17, read-out: Cltot): 4.7 L/h/kg | Vd [1]: 125 L/kg | half-life [2]: 28.1 h | clearance (iv, 2 mg/kg, iv 2 mg/kg, dog No. 18, read-out: Cltot): 3.8 L/h/kg | Vd [2]: 153 L/kg | half-life [3]: 26.2 h | clearance (iv, 2 mg/kg, iv 2 mg/kg, dog No. 19, read-out: Cltot): 6 L/h/kg | Vd [3]: 228 L/kg | half-life [4]: 24.3 ± 5 h | clearance (iv, 2 mg/kg, iv 2 mg/kg, mean ± SD of 3 dogs, read-out: Cltot): 4.83 ± 1.11 L/h/kg | Vd [4]: 169 ± 53.3 L/kg | clearance (iv, iv data, read-out: drug clearance): 960 mL/min | Cmax [5]: 0.0158 µg/mL | Tmax [5]: 1 h | half-life [5]: 21.4 h | Cmax [6]: 0.0154 µg/mL | Tmax [6]: 0.17 h | half-life [6]: 29.5 h | Cmax [7]: 0.0218 µg/mL | Tmax [7]: 1 h | half-life [7]: 17.4 h | Cmax [8]: 0.0177 ± 0.00358 µg/mL | Tmax [8]: 0.72 ± 0.48 h | half-life [8]: 22.8 ± 6.2 h | bioavailability (po, 10 mg/kg, oral 10 mg/kg, dog No. 17, read-out: F (AUCpo /AUCiv)): 3.4% | bioavailability (po, 10 mg/kg, oral 10 mg/kg, dog No. 18, read-out: F (AUCpo /AUCiv)): 2.6% | bioavailability (po, 10 mg/kg, oral 10 mg/kg, dog No. 19, read-out: F (AUCpo /AUCiv)): 4.5% | bioavailability (po, 10 mg/kg, oral 10 mg/kg, mean ± SD of 3 dogs, read-out: F (AUCpo /AUCiv)): 3.5 ± 1% | bioavailability (po, 10 mg/kg, oral, 10 mg/kg, read-out: Mean bioavailability (F)): 4% | Cmax [9]: 0.0684 µg/mL | Tmax [9]: 6 h | half-life [9]: 12.8 h | Cmax [10]: 0.0429 µg/mL | Tmax [10]: 8 h | half-life [10]: 32.7 h | Cmax [11]: 0.0447 µg/mL | Tmax [11]: 4 h | half-life [11]: 24.5 h | Cmax [12]: 0.052 ± 0.0142 µg/mL | Tmax [12]: 6 ± 2 h | half-life [12]: 23.3 ± 10 h | bioavailability (sc, 10 mg/kg, subcutaneous 10 mg/kg, dog No. 17, read-out: F): 41% | bioavailability (sc, 10 mg/kg, subcutaneous 10 mg/kg, dog No. 18, read-out: F): 25% | bioavailability (sc, 10 mg/kg, subcutaneous 10 mg/kg, dog No. 19, read-out: F): 36% | bioavailability (sc, 10 mg/kg, subcutaneous, 10 mg/kg, read-out: Mean bioavailability (F)): 34% | bioavailability (topical or ocular, 10 mg/kg, dermal patch, 10 mg/kg, read-out: Mean bioavailability (F)): 16% | bioavailability (topical or ocular, 10 mg/kg, topical dermal cream, 10 mg/kg, read-out: Mean bioavailability (F)): 7% | bioavailability (topical or ocular, 50 mg/kg, dermal patch, 50 mg/kg, read-out: Mean bioavailability (F)): 12% | bioavailability (topical or ocular, 50 mg/kg, topical dermal cream, 50 mg/kg, read-out: Mean bioavailability (F)): 3% | Metabolic Index (AUCun /AUCRAD) (iv 2 mg/kg, dog No. 17): 0.011 | Metabolic Index (AUCun /AUCRAD) (iv 2 mg/kg, dog No. 18): 0.015 | Metabolic Index (AUCun /AUCRAD) (iv 2 mg/kg, dog No. 19): 0.009 | Metabolic Index (AUCun /AUCRAD) (iv 2 mg/kg, mean ± SD of 3 dogs): 0.012 ± 0.003 | Metabolic Index (AUCun /AUCRAD) (oral 10 mg/kg, dog No. 17): 0.0006 | Metabolic Index (AUCun /AUCRAD) (oral 10 mg/kg, dog No. 18): 0.0011 | Metabolic Index (AUCun /AUCRAD) (oral 10 mg/kg, dog No. 19): 0.0006 | Metabolic Index (AUCun /AUCRAD) (oral 10 mg/kg, mean ± SD of 3 dogs): 0.0008 ± 0.0003 | Metabolic Index (AUCun /AUCRAD) (subcutaneous 10 mg/kg, dog No. 17): 0.006 | Metabolic Index (AUCun /AUCRAD) (subcutaneous 10 mg/kg, dog No. 18): 0.007 | Metabolic Index (AUCun /AUCRAD) (subcutaneous 10 mg/kg, dog No. 19): 0.004 | Metabolic Index (AUCun /AUCRAD) (subcutaneous 10 mg/kg, mean ± SD of 3 dogs): 0.006 ± 0.002
